The record followed here is ChEMBL document CHEMBL1201862, “PubChem BioAssay data set” (2004).

Activity calls are given as the source filed them. Bounds are passed on as bounds.

Test [1] can be described thus: decrease of insulin promoter-GFP reporter – imaging, high-content screening, mouse beta cells (AID 1628). The test is classed as functional. The conditions noted are these: MIN6.
Test [2] in a line: MIN6 cell viability loss – mouse insulinoma, cytotoxicity control, dose response (AID 2122).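 Also: confirmatory high-throughput counterscreen run to flag cytotoxic compounds.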 The test is classed as functional.
Test [3] in a line: HEK-293T viability loss after treatment – luminescence, T-cell screen hits, cytotoxicity control for TCR NF-kB inhibitor project, dose response (AID 489026).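 Also: cells exposed to compound about 14 hours before the viability readout.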 The format is functional, cell-based.
Test [4] has as its system INS1. The experiment in a line: INS-1E survival protection against cytokine death – cell-based, luminescence, retest, dose response (AID 449756).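 Also: cell death triggered by IL-1 beta plus TNF-alpha plus IFN-gamma mixture; protective hits raise ATP signal compared with cytokine alone wells.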 The test is classed as functional. The following applies: Rattus norvegicus.
Test [5] can be described thus: reduction of Shn3 3'UTR-driven luciferase in osteoblasts – cell-based, Clone20 osteoblasts, firefly luciferase, cherry-picked, dose response (AID 624132).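 Also: firefly luciferase luminescence from reporter carrying the Shn3 3'UTR in osteoblasts.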 The test is classed as functional.
Test [6] can be described thus: loss of viability in HepG2 cells – cell-based, CellTiter-Glo, cherry-picked, cytotoxicity control for Shn3 inhibitor project, dose response (AID 624134). The format is functional. Background: Cellular ATP, detected with luciferase, serves as a proxy for viable cell number.
A short description of test [7]: non-specific 3'UTR reporter inhibition in Clone20-Shn3RL – cell-based, Renilla luciferase, cherry-picked, counter-screen for Shn3 inhibitor project, dose response (AID 624133). The format is functional.
For test [8], the target named is COUP transcription factor 2 (Homo sapiens, UniProt P24468). Nature of the test: Luminescence-based cell-based high throughput dose response assay to identify inhibitors of COUP-TFII (NR2F2). The test is classed as functional.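 Also: HEK293 cells transiently cotransfected with COUP-TFII expression vector and reporter; luciferase reporter luminescence driven by COUP-TFII from the pX2-168 reporter plasmid.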
The target of test [9] is Paired box protein Pax-8 (Homo sapiens, UniProt Q06710). The experiment in a line: PAX8 transcriptional activity inhibition in RMG-I – RMG-I cells, luciferase, cherry-pick, dose response (AID 687027).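 Also: luciferase reporter driven by Pax8 target thyroperoxidase promoter measured by SteadyGlo luminescence.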 The test is classed as functional, cell-based.
Test [10] can be described thus: toxicity toward immortalized ovarian surface epithelium – cell-based, plate reader, dry powder samples, cytotoxicity control for PAX8 inhibitor project, dose response (AID 743045). The test is classed as functional.
Test [11] is described as follows: reduced cellular PGC1a acetyl-lysine signal – cell-based, cherry-picked samples, dose response (AID 720514).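 Also: potency may reflect raised or lowered acetylation signal.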 The test is classed as functional.
The nature of test [12]: OVCAR-3 cell viability loss – plate reader, dry powder samples, PAX8 inhibitor project, dose response (AID 743044). The test is classed as functional, cell-based.
The nature of test [13]: IGROV1 cell killing – plate reader, dry powder samples, PAX8 inhibitor project, dose response (AID 743043). The format is functional, cell-based. The conditions noted are these: IGROV-1.
The nature of test [14]: general cell-killing toxicity readout – plate reader, dry powder samples, cytotoxicity control for PAX8 inhibitor project, dose response (AID 743021). The format is functional, cell-based.
For test [15], the target named is Potassium channel subfamily K member 9 (Homo sapiens, UniProt Q9NPC2). The experiment in a line: KCNK9 flux blockade, concentration-response – cell-based, FluxOR thallium flux, selectivity assay for TASK1 inhibitor project, SAR follow-up (AID 652211).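 Also: potency is for inhibitors of the channel.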 The test is classed as functional.
Test [16] has as its target Potassium channel subfamily K member 3 (Homo sapiens, UniProt O14649). Nature of the test: inhibition of human KCNK3 channel flux – CHO cells, FluxOR thallium flux, SAR follow-up (AID 652212). The format is functional.
The nature of test [17]: viability loss in HEK293T cells – cell-based, CellTiter-Glo luminescence, dry powder, set 6, cytotoxicity control, dose response (AID 651949). The format is functional. The following applies: HEK293.
A short description of test [18]: Mycobacterium tuberculosis BioA enzyme inhibitor Measured in Biochemical System Using Plate Reader - 2163-02_Inhibitor_Dose_DryPowder_Activity.

COUP transcription factor 2, sequence (P24468 whole entry): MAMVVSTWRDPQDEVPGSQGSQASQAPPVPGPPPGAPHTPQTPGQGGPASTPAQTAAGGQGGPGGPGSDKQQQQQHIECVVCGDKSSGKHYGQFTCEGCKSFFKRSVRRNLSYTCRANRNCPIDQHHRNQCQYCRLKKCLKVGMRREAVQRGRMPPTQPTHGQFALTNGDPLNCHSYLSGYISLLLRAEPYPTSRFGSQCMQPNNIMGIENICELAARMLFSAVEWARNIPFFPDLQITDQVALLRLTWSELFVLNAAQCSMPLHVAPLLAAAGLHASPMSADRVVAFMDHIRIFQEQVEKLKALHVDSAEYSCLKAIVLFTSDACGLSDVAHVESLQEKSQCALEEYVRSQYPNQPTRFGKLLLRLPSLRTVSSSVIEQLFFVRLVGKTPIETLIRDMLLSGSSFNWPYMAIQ
Paired box protein Pax-8, sequence (Q06710 whole entry): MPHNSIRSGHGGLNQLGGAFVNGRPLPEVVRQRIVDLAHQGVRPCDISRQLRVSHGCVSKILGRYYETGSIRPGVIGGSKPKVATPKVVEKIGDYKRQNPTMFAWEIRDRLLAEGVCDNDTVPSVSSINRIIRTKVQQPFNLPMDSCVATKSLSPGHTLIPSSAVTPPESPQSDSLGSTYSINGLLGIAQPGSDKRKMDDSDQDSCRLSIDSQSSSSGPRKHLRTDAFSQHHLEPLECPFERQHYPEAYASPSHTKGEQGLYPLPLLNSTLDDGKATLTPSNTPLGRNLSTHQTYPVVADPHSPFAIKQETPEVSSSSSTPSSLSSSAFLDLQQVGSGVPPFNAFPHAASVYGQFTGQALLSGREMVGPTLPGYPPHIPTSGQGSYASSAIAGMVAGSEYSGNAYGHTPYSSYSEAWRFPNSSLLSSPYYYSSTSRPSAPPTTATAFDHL
Potassium channel subfamily K member 9, sequence (Q9NPC2 whole entry): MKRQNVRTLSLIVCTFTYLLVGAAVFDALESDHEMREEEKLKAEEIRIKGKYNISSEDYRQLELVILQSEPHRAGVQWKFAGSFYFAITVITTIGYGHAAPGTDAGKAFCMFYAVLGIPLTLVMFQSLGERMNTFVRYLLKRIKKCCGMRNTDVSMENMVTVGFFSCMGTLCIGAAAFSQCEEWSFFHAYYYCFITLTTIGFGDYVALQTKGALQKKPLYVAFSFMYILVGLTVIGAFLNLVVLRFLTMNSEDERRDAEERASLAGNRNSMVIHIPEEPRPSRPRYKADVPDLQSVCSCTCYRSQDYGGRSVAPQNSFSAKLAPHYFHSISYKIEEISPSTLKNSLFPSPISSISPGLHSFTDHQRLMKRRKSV
Potassium channel subfamily K member 3, sequence (O14649 whole entry): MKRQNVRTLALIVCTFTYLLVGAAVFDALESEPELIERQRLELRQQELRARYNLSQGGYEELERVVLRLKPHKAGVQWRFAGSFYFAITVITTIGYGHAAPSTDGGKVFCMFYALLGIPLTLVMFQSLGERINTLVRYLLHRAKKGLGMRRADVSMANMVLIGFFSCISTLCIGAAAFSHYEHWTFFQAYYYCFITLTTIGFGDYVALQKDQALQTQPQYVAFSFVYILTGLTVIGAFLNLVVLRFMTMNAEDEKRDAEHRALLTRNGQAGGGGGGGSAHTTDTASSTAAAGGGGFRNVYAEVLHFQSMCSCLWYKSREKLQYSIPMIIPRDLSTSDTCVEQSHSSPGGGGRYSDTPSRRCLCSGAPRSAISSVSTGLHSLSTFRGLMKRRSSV

Regarding `CCC(O)C1CCN(C(=O)c2cc(COc3ccc4ncccc4c3)on2)CC1` (stereo not drawn), the IC50 – broadly, the concentration that gives 50% inhibition – was 0.571 µM (active) in test [1], 0.294 µM (active) in [2], > 80 µM (inactive) in test [3] and 4.46 µM (active) in test [8]. The concentration at half-maximal activity (AC50) (commonly the midpoint of the concentration-response curve, whichever way the signal moves) is 3.38 µM (active) in [4], 0.505 µM (active) in test [5], 1.75 µM (active) in [6] and 10.9 µM (active) in test [7].

As for `O=C(Nc1cccc(F)c1)N1C[C@@H]2N[C@H](C1)[C@@H]2c1ccc(-c2ccc(F)cc2)cc1`, the AC50 is 19.5 µM (active) in [9]; 34.3 µM (active) in test [10]; 18.5 µM (active) in [11]; 17.7 µM (active) in test [12]; 22.4 µM (active) in [13]; 65.7 µM (active) in test [14].

For `COc1c(F)cccc1C(=O)Nc1cccc(NC(=O)c2cccc(C)c2)c1`, the figures for the half-inhibitory concentration (IC50) in test [15] and in test [16] were 0.37 µM (active) and 0.013 µM (active), respectively.

With `c1ccc(CNCCSc2nnc(-c3ccccc3)o2)cc1`, the AC50 in test [17] was > 52 µM (inactive).

As to `Cc1cccc(/C=C(\CCC(=O)O)c2nc3ccccc3s2)c1`, in [18], the AC50 is 14.5 µM (active).
